According to the METLIN SMRT retention time set (Domingo-Almenara et al. 2019):

Assay: gradient 5% acetonitrile 3 min, to 50% in 2 min, to 85% in 15 min, held 3 min, 100 µL/min
Settings: column: Zorbax Extend-C18 2.1 x 50 mm; eluents: water / acetonitrile, 0.1% formic acid
Method in brief: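 Mixtures of ~100 pure standards were chromatographed on a Zorbax Extend-C18 column (2.1 × 50 mm, 1.8 μm) at 100 μL/min using water and acetonitrile, each with 0.1% formic acid. Detection used a quadrupole time-of-flight mass spectrometer in positive and negative ionization mode, and data collection spanned 3 months. Retention time was obtained from adduct peaks picked computationally and each checked manually.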

Row | RP-LC retention time | Compound
1 | 935 s | COCC(=O)N1CCc2c([nH]c3ccccc23)C1c1ccccc1 (stereo not drawn)
2 | 689 s | COc1ccc(C(C)NC(=O)COc2ccc(NC(=O)C3CC3)cn2)cc1OC (stereo not drawn)
3 | 964 s | Cc1ccc(Cn2ccn3nc(-c4ccccc4)c(CO)c3c2=O)cc1
4 | 542 s | COCCN1CCC(N2CCN(C(=O)C3(c4ccccc4)CC3)CC2)C1=O (stereo not drawn)
5 | 707 s | Cc1ccc(CN2CCC(CNC(=O)c3sc4ncccc4c3-n3cccc3)C2)cc1 (stereo not drawn)
6 | 653 s | CC1CCN(Cc2csc(N3CCN(C(=O)COc4ccccc4)CC3)n2)CC1
7 | 826 s | COc1ccc(NC(=O)N2CCCC2c2nc(-c3ccccc3OC)no2)cc1 (stereo not drawn)
8 | 835 s | Cc1oc(-c2ccc(Cl)cc2)nc1CN1CCCC(C(=O)NC2CCCCC2C)C1 (stereo not drawn)
9 | 588 s | CCN1CCN(c2cc(C)c3cc(NC(=S)NCCC(C)C)ccc3n2)CC1
10 | 770 s | CC(NC(=O)CCc1c(-c2ccc(Br)cc2)nc2ccccn12)c1ccccc1 (stereo not drawn)
11 | 691 s | O=C(c1cnccn1)N1CC(c2nc(CCOCC3CC3)no2)C1
12 | 835 s | O=S(=O)(c1cccnc1)N1CC(c2nc(CCOCc3ccccc3)no2)C1
13 | 585 s | CCNc1cc(N2CCC(CCC(=O)NCc3ccc(Cl)cc3)CC2)ncn1
14 | 1010 s | COc1ccc(Cl)cc1NC(=O)NC1CCN(c2nc3ccccc3n(C)c2=O)CC1
15 | 1050 s | Cc1ccc(-c2ccc(=O)n(Cc3noc(C(=O)N4CCC(C)CC4)n3)n2)cc1C
16 | 665 s | O=C(Nc1cnn(-c2ncc(N3CCSCC3)cn2)c1)C1CCCO1 (stereo not drawn)
17 | 599 s | CN(CCNC(=O)c1ccc(CN2C(=O)CCn3nccc32)cc1)C1CCCCC1
18 | 960 s | O=C(CN1C(=O)C(C(=O)N2CCCCC2)Sc2ccccc21)N1CCN(c2ccccc2F)CC1 (stereo not drawn)
19 | 752 s | COC(=O)c1sc2ccccc2c1S(=O)(=O)N1CCN(c2ccccn2)CC1
20 | 819 s | CC(C)c1noc(CC2CCN(C(=O)c3ccsc3)CC2)n1
21 | 596 s | CCOC(=O)CSc1nc2ccccc2[nH]1
22 | 880 s | O=C1CC(C(=O)N2CCc3ccccc32)CN1CCc1c[nH]c2ccc(Cl)cc12 (stereo not drawn)
23 | 913 s | COc1ccc(CN2CC3(CCN(S(=O)(=O)c4ccccc4Cl)CC3)C2=O)cc1

Row | RP-LC retention time | Compound
24 | 734 s | CSc1ccc(CNC(=O)COc2nc(C)nc3ccccc23)cc1
25 | 592 s | O=C(Nc1ccc2c(c1)OCCO2)N1CCC(Cc2nc(-c3cccnc3)n[nH]2)C1 (stereo not drawn)
26 | 852 s | Cc1csc(-c2ccc(N3CCN(C(=O)c4cc5ccccc5[nH]4)CC3)nc2)n1
27 | 721 s | CCCc1nnc(NC(=O)C2CCN(C(=O)c3ccc(F)cc3)CC2)s1
28 | 1190 s | O=C(Nc1ccc(F)cc1)C1CCCN(c2nc3ccccc3nc2C(F)(F)F)C1 (stereo not drawn)
29 | 1410 s | O=C(CCC1CCCC1)N1CCc2c([nH]c3ccccc23)C1c1ccc(F)cc1 (stereo not drawn)
30 | 1020 s | Cc1noc(C)c1S(=O)(=O)N1CCC(OCCOCc2ccccc2)CC1
31 | 987 s | FC(F)(F)c1cccc(N2CCN(c3ncnc4sccc34)CC2)c1
32 | 628 s | COCc1nncn1C1CCN(C(=O)c2cc(F)cc(F)c2)CC1
33 | 852 s | CCCCc1nnc(NC(=O)C2CCN(C(=O)c3ccc(Cl)cc3)CC2)s1
34 | 1150 s | Cc1ccc(C)c(-c2csc(NC(=O)COc3ccccc3)n2)c1
35 | 697 s | CCOCCCNC(=O)C1CCCN(c2ccc(=O)n(-c3ccc(F)cc3)n2)C1 (stereo not drawn)
36 | 657 s | CCNc1nc(C)cc(N2CCN(C(=O)Nc3cc(OC)cc(OC)c3)CC2)n1
37 | 1340 s | COc1ccc(-c2noc(-c3ccc(N4CCN(c5cccc(OC)c5)CC4)nc3)n2)cc1
38 | 1180 s | COc1ccc(OC)c(NC(=O)Cn2nc(N3CCC(C)CC3)c3ccccc3c2=O)c1
39 | 693 s | Cc1onc2c(=O)n(CC(=O)N3CCN(c4ccccn4)CC3)nc(-c3ccc(Cl)cc3)c12
40 | 608 s | COCC1CN(C2CCC2)CC12CCN(C(=O)Cc1ccsc1)CC2 (stereo not drawn)
41 | 626 s | Cn1nnc2c(N3CCN(C(=O)Nc4ccccc4C#N)CC3)ncnc21
42 | 621 s | COc1cccc(CNC(=O)c2ccc3ncnc(N4CCCC4)c3c2)c1
43 | 604 s | Cc1cc(N2CCN(c3ccccn3)CC2)n2nc(C(F)(F)F)nc2n1
44 | 1050 s | CCOc1cccc(CNC(=O)c2sc3ncccc3c2-n2cccc2)c1
45 | 1030 s | O=C(Nc1cccc(Cl)c1)C1CCCN(S(=O)(=O)Cc2ccccc2)C1 (stereo not drawn)

Second part, the compound before the results:

Row | Compound | RP-LC retention time
46 | CC(=O)Nc1cc2c(cc1Sc1ccc(Cl)cc1)n(C)c(=O)n2C | 806 s
47 | Cc1noc(C2CN(C(=O)Nc3c(C)cccc3C)CC23CCOCC3)n1 (stereo not drawn) | 693 s
48 | COc1ccc(CN2C=C(C(=O)OCc3nc(-c4cccc(C)c4)no3)C(C)=NS2(=O)=O)cc1 | 1170 s
49 | CCc1nc(OCC(=O)NCc2cc(OC)ccc2OC)c2c(C)c(C)oc2n1 | 971 s
50 | Cc1ccc(Cn2cc(-c3noc(-c4cccc(N(C)C)c4)n3)nn2)cc1 | 1100 s
51 | Cc1ccc(CN2CC(Cn3c(C)cnc3-c3ccncc3)C2)o1 | 611 s
52 | CCOc1ccc(C(C)NC(=O)c2cc(NC(C)=O)cc3nc(C)ccc23)cc1 (stereo not drawn) | 649 s
53 | CCOc1ccc(-c2[nH]ncc2CNS(=O)(=O)c2cccc(C(F)(F)F)c2)cc1 | 902 s
54 | Cc1ccc(Cl)cc1NS(=O)(=O)c1c(C)sc(C)c1-c1cc(C(F)(F)F)on1 | 1220 s
55 | Cn1nc(-c2nnc(-c3ccccc3)o2)c2c1CCN(S(=O)(=O)c1cc(F)ccc1F)C2 | 940 s
56 | COc1ccccc1Oc1c(NS(=O)(=O)c2ccc(C(C)(C)C)cc2)nc(-c2ncccn2)nc1OCCO | 939 s
57 | Cc1nnc(-c2cc(S(=O)(=O)Nc3ccc(S(N)(=O)=O)cc3)c(C)n2C)o1 | 649 s
58 | COCCn1c(SCc2nc(-c3ccc4c(c3)OCO4)no2)nc2cc3c(cc2c1=O)OCO3 | 1060 s
59 | Cc1ccc(N(C)C(=O)c2nc(N3CCSCC3)c3cnn(C)c3n2)cc1 | 812 s
60 | O=C1CN(S(=O)(=O)c2ccc([N+](=O)[O-])cc2)c2ccccc2N1 | 738 s
61 | CCc1nc2cc(-c3noc(Cc4ccc(Cl)cc4)n3)ccc2o1 | 1140 s
62 | CC(C)CCNC(=O)c1ccc2c(c1)CCCN2S(C)(=O)=O | 846 s
63 | Cc1nc(-c2ccccc2)sc1C(=O)Nc1nc(-c2ccccc2)c(C)s1 | 1210 s
64 | N#Cc1ccc(C(=O)Nc2cccc(-c3nnc4n3CCCC4)c2)cc1 | 665 s
65 | Cc1ccccc1CN1C(=O)CN(S(=O)(=O)c2ccccc2)CC1(C)C(=O)NCc1ccccc1 (stereo not drawn) | 905 s
66 | CC(=O)N1CCc2ccc(NC(=O)Nc3ccccc3Cl)cc21 | 755 s
67 | O=C(NCCc1c[nH]c2ccccc12)C1CC(=O)N(c2n[nH]c3cccc(F)c23)C1 (stereo not drawn) | 710 s

Row | Compound | RP-LC retention time
68 | Cc1cc2c(=O)n(CC(=O)NCc3ccc(F)cc3)ccc2s1 | 751 s
69 | Cn1c(=O)c2c(nc3n(-c4ccc(F)cc4)c(-c4ccc(Cl)cc4)cn23)n(C)c1=O | 1010 s
70 | Cc1c(OCC(N)=O)ccc2c1O/C(=C\c1ccc3c(c1)OCO3)C2=O | 714 s
71 | CCc1cc(=O)n(CC(=O)NCc2ccc(F)cc2Cl)c(N2CCOCC2)n1 | 749 s
72 | Cc1cccc(N2C=C(C(=O)N3CCOCC3)S(=O)(=O)c3ccc(Cl)cc32)c1 | 868 s
73 | COC(=O)C1=CN(C2CC2)c2cc(N3CCCC(C)C3)c(F)cc2S1(=O)=O (stereo not drawn) | 1010 s
74 | Cc1cc(=O)n(CC(=O)Nc2ccc(F)cc2)c(N)n1 | 592 s
75 | CCn1cnc2ccc(-c3noc(-c4ccc(OC)cc4)n3)cc21 | 753 s
76 | Cc1cc2[nH]c(C(=O)Nc3ccc(C)c(F)c3)c(CN3CCOCC3)c2s1 | 738 s
77 | CCN(c1ccccc1)S(=O)(=O)c1ccc(C(=O)Nc2cc(C)no2)cc1 | 882 s
78 | O=C(Cc1nc(-c2ccccc2)n[nH]1)Nc1ccc(Cl)cc1 | 789 s
79 | CC(C)N1C(=O)C(C)N(C(=O)NCCN(C)C)c2cccnc21 (stereo not drawn) | 565 s
80 | COc1ccc(-c2nnc(COc3ccc(NC(=O)c4ccc(Cl)nc4)cc3)o2)cc1 | 877 s
81 | COc1ccc(CN(C(=O)COc2c(C)cccc2C)C2CCS(=O)(=O)C2)cc1OC (stereo not drawn) | 847 s
82 | COc1ccc(CNC2=NCCNC23CCN(S(=O)(=O)c2ccc(C)cc2)CC3)cc1 | 732 s
83 | COc1cc(NC(C)=O)c(Cl)cc1C(=O)NCCc1c[nH]c2ccc(C)cc12 | 831 s
84 | Cc1cccc(S(=O)(=O)N(C)CC2CCOCC2)c1 | 863 s
85 | Cc1ccccc1CNC(=O)C1(c2ccc(NS(C)(=O)=O)cc2)CCCCC1 | 917 s
86 | O=C(NCc1ccc(F)cc1)NC1CCN(C(=O)N2C[C@H]3C[C@H](C2)[C@H]2CCCC(=O)N2C3)CC1 | 658 s
87 | COC(=O)c1ccc(N2C=C(C(=O)N3CCCC3)S(=O)(=O)c3ccc(Cl)cc32)cc1 | 842 s
88 | Oc1ccc2c3c1OC1C(O)CC[C@@]4(O)[C@@H](C2)N(CC2CCC2)CC[C@]314 (stereo partly drawn) | 619 s
